≈ marks a conversion by molar mass, not a printed value. Like-named read-outs stand apart in the source and are kept apart here.
Legend:
Format in all cases: cell-based, P. aeruginosa
[1] = tested on: PA-041, blaNDM; assay: MIC / checkerboard with ATM; details: for MIC: Pseudomonas aeruginosa, read-out: MIC of ATM with 5, PA-041
[2] = tested on: ATM-Resistant CPPA (n = 15); assay: MIC distribution over clinical isolates; details: for inhibition at 1 µg/mL / inhibition at 2 µg/mL / inhibition at 4 µg/mL / inhibition at 8 µg/mL / inhibition at 16 µg/mL / inhibition at 32 µg/mL / inhibition at 64 µg/mL / MIC50 / MIC90: Pseudomonas aeruginosa; for inhibition at 1 µg/mL: read-out: Cumulative % inhibition by ATM, 5 at 1 mg/L; for inhibition at 2 µg/mL: read-out: Cumulative % inhibition by ATM, 5 at 2 mg/L; for inhibition at 4 µg/mL: read-out: Cumulative % inhibition by ATM, 5 at 4 mg/L; for inhibition at 8 µg/mL: read-out: Cumulative % inhibition by ATM, 5 at 8 mg/L; for inhibition at 16 µg/mL: read-out: Cumulative % inhibition by ATM, 5 at 16 mg/L; for inhibition at 32 µg/mL: read-out: Cumulative % inhibition by ATM, 5 at 32 mg/L; for inhibition at 64 µg/mL: read-out: Cumulative % inhibition by ATM, 5 at 64 mg/L
[3] = tested on: PA-033, blaNDM; assay: MIC / checkerboard with ATM; details: for MIC: Pseudomonas aeruginosa, read-out: MIC of ATM with 5, PA-033
[4] = tested on: PA-002, blaIMP; assay: MIC / checkerboard with ATM; details: for MIC: Pseudomonas aeruginosa, read-out: MIC of ATM with 5, PA-002

## CC(C)(C)CCOc1c(-c2ccc(F)c(F)c2)oc2cc(OCC(=O)O)cc(O)c2c1=O [Compound 5, 2-((2-(3,4-Difluorophenyl)-3-(3,3-dimethylbutoxy)-5-hydroxy-4-oxo-4H-chromen-7-yl)oxy)acetic Acid]
[1]; PA-041, ATM/5
  Susceptibility to ATM: S (S (sensitive, MIC ≤ 8 mg/L))
[1]; PA-041, lowest-FICI combination
  FD (fold decrease in MIC of ATM with 5): 4
[1]; 5 at 1 mg/L
  MIC: 4 µg/mL
[1]; 5 at 2 mg/L
  MIC: 4 µg/mL
[1]; 5 at 4 mg/L
  MIC: 2 µg/mL
[1]; 5 at 8 mg/L
  MIC: 2 µg/mL
[1]; 5 at 16 mg/L
  MIC: 2 µg/mL
[1]; 5 at 32 mg/L
  MIC: 1 µg/mL
[1]; 5 at 64 mg/L
  MIC: 1 µg/mL
[2]
  ATM-non-susceptible pathogens (MIC ≥ 16 mg/L) converted into sensitive ones by combination with 5: 14 out of 15
[2]; ATM 0.5 mg/L
  inhibition at 1 µg/mL: 0%
  inhibition at 2 µg/mL: 0%
  inhibition at 4 µg/mL: 0%
  inhibition at 8 µg/mL: 0%
  inhibition at 16 µg/mL: 0%
  inhibition at 32 µg/mL: 0%
  inhibition at 64 µg/mL: 0%
[2]; ATM 1 mg/L
  inhibition at 1 µg/mL: 0%
  inhibition at 2 µg/mL: 0%
  inhibition at 4 µg/mL: 0%
  inhibition at 8 µg/mL: 0%
  inhibition at 16 µg/mL: 0%
  inhibition at 32 µg/mL: 0%
  inhibition at 64 µg/mL: 7%
[2]; ATM 2 mg/L
  inhibition at 1 µg/mL: 0%
  inhibition at 2 µg/mL: 0%
  inhibition at 4 µg/mL: 0%
  inhibition at 8 µg/mL: 0%
  inhibition at 16 µg/mL: 13%
  inhibition at 32 µg/mL: 20%
  inhibition at 64 µg/mL: 27%
[2]; ATM 4 mg/L
  inhibition at 1 µg/mL: 0%
  inhibition at 2 µg/mL: 0%
  inhibition at 4 µg/mL: 7%
  inhibition at 8 µg/mL: 47%
  inhibition at 16 µg/mL: 67%
  inhibition at 32 µg/mL: 80%
  inhibition at 64 µg/mL: 87%
[2]; ATM 8 mg/L
  inhibition at 1 µg/mL: 7%
  inhibition at 2 µg/mL: 7%
  inhibition at 4 µg/mL: 67%
  inhibition at 8 µg/mL: 80%
  inhibition at 16 µg/mL: 93%
  inhibition at 32 µg/mL: 93%
  inhibition at 64 µg/mL: 93%
[2]; ATM 16 mg/L
  inhibition at 1 µg/mL: 67%
  inhibition at 2 µg/mL: 87%
  inhibition at 4 µg/mL: 100%
  inhibition at 8 µg/mL: 100%
  inhibition at 16 µg/mL: 100%
  inhibition at 32 µg/mL: 100%
  inhibition at 64 µg/mL: 100%
[2]; ATM 32 mg/L
  inhibition at 1 µg/mL: 100%
  inhibition at 2 µg/mL: 100%
  inhibition at 4 µg/mL: 100%
  inhibition at 8 µg/mL: 100%
  inhibition at 16 µg/mL: 100%
  inhibition at 32 µg/mL: 100%
  inhibition at 64 µg/mL: 100%
[2]; ATM 64 mg/L
  inhibition at 1 µg/mL: 100%
  inhibition at 2 µg/mL: 100%
  inhibition at 4 µg/mL: 100%
  inhibition at 8 µg/mL: 100%
  inhibition at 16 µg/mL: 100%
  inhibition at 32 µg/mL: 100%
  inhibition at 64 µg/mL: 100%
[2]; read-out: MIC50 of ATM, 5 at 1 mg/L
  MIC50: 16 µg/mL (≈ 35.7 µM)
[2]; read-out: MIC50 of ATM, 5 at 2 mg/L
  MIC50: 16 µg/mL (≈ 35.7 µM)
[2]; read-out: MIC50 of ATM, 5 at 4 mg/L
  MIC50: 8 µg/mL (≈ 17.8 µM)
[2]; read-out: MIC50 of ATM, 5 at 8 mg/L
  MIC50: 8 µg/mL (≈ 17.8 µM)
[2]; read-out: MIC50 of ATM, 5 at 16 mg/L
  MIC50: 4 µg/mL (≈ 8.92 µM)
[2]; read-out: MIC50 of ATM, 5 at 32 mg/L
  MIC50: 4 µg/mL (≈ 8.92 µM)
[2]; read-out: MIC50 of ATM, 5 at 64 mg/L
  MIC50: 4 µg/mL (≈ 8.92 µM)
[2]; read-out: MIC90 of ATM, 5 at 1 mg/L
  MIC90: 32 µg/mL (≈ 71.4 µM)
[2]; read-out: MIC90 of ATM, 5 at 2 mg/L
  MIC90: 32 µg/mL (≈ 71.4 µM)
[2]; read-out: MIC90 of ATM, 5 at 4 mg/L
  MIC90: 16 µg/mL (≈ 35.7 µM)
[2]; read-out: MIC90 of ATM, 5 at 8 mg/L
  MIC90: 16 µg/mL (≈ 35.7 µM)
[2]; read-out: MIC90 of ATM, 5 at 16 mg/L
  MIC90: 16 µg/mL (≈ 35.7 µM)
[2]; read-out: MIC90 of ATM, 5 at 32 mg/L
  MIC90: 16 µg/mL (≈ 35.7 µM)
[2]; read-out: MIC90 of ATM, 5 at 64 mg/L
  MIC90: 16 µg/mL (≈ 35.7 µM)
[3]; PA-033
  Activity (FICI class): I (I (indifference, 0.5 < FICI ≤ 4))
  Concentrations of ATM and 5 at lowest FICI (ATM/5): 1/8
  Lowest FICI (ATM/5): 0.52
[3]; PA-033, ATM/5
  Susceptibility to ATM: S (S (sensitive, MIC ≤ 8 mg/L))
[3]; PA-033, lowest-FICI combination
  FD (fold decrease in MIC of ATM with 5): 2
[3]; 5 at 1 mg/L
  MIC: 2 µg/mL
[3]; 5 at 2 mg/L
  MIC: 2 µg/mL
[3]; 5 at 4 mg/L
  MIC: 2 µg/mL
[3]; 5 at 8 mg/L
  MIC: 1 µg/mL
[3]; 5 at 16 mg/L
  MIC: 1 µg/mL
[3]; 5 at 32 mg/L
  MIC: 1 µg/mL
[3]; 5 at 64 mg/L
  MIC: 1 µg/mL
[4]; PA-002
  Activity (FICI class): S (S (Synergy, FICI ≤ 0.5))
  Concentrations of ATM and 5 at lowest FICI (ATM/5): 8/4
  Lowest FICI (ATM/5): 0.26
  Minimum concentration of 5 to make sensitive to ATM: 4 mg/L
[4]; PA-002, ATM/5
  Susceptibility to ATM: S (S (sensitive, MIC ≤ 8 mg/L))
[4]; PA-002, lowest-FICI combination
  FD (fold decrease in MIC of ATM with 5): 4
[4]; 5 at 1 mg/L
  MIC: 16 µg/mL
[4]; 5 at 2 mg/L
  MIC: 16 µg/mL
[4]; 5 at 4 mg/L
  MIC: 8 µg/mL
[4]; 5 at 8 mg/L
  MIC: 8 µg/mL
[4]; 5 at 16 mg/L
  MIC: 4 µg/mL
[4]; 5 at 32 mg/L
  MIC: 4 µg/mL
[4]; 5 at 64 mg/L
  MIC: 2 µg/mL

Source: article PMC11672637, “7-O-Carboxylic Acid-Substituted 3-O-Alkyl Difluoroquercetin; An Aztreonam-Potentiating Agent Against Carbapenemase-Producing Pseudomonas aeruginosa Through Simultaneous Inhibition of Metallo-β-Lactamase and Efflux Pump” (Antibiotics, 2024)
